Consider eight compounds from PMC9230533, “Discovery of Triple Inhibitors of Both SARS-CoV-2 Proteases and Human Cathepsin L” (Pharmaceuticals, 2022).

Like-named read-outs stand apart in the source and are kept apart here.

For data set [1] the following is noted: cited from earlier work.
The nature of data set [2]: Cell viability / cytotoxicity in the SARS-CoV-2 Huh7.5.1 infectivity assay. The following applies: human, Huh7.5.1 cells infected with SARS-CoV-2 (MOI 1.0), tested 60 to 0.08 µM, read-out: SARS-CoV-2 Infectivity Cells-Based Assay CC50 (converted).
Another data set deals with T1, human cathepsin L (Homo sapiens, UniProt P07711).
T1 construct: purchased R & D Systems
T1 sequence (P07711 114-333): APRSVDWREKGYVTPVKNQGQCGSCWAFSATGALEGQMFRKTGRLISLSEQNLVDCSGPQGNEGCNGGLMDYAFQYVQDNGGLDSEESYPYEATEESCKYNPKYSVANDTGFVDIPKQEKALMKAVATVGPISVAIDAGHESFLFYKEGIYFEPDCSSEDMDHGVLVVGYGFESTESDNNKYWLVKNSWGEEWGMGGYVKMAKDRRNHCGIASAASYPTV
Kind of data set: Human cathepsin L fluorogenic enzymatic inhibition assay. The data set is classed as biochemical. The following applies: for inhibitory effect on cathepsin L (in words): dose-response, Figure 4.

In the next data set the target is SARS-CoV-2 Mpro (Severe acute respiratory syndrome coronavirus 2, UniProt P0DTD1). Kind of data set: SARS-CoV-2 Mpro fluorometric (FRET peptide) enzymatic inhibition assay. The format is biochemical. The following applies: for fold more potent than disulfiram against Mpro: ratio of IC50 values vs disulfiram.
For the next data set, the system named is SARS-CoV-2. Description: SARS-CoV-2 infectivity cells-based assay (Huh7.5.1, immunofluorescence), antiviral efficacy. The format is cell-based. The following applies: for EC50: Severe acute respiratory syndrome coronavirus 2, Huh-7.5.1, 48 h, read-out: SARS-CoV-2 Infectivity Cells-Based Assay EC50; for CC50/EC50 Ratio (therapeutic ratio): CC50 over EC50.
The target of another data set is SARS-CoV-2 PLpro (Severe acute respiratory syndrome coronavirus 2, UniProt P0DTD1). Description: SARS-CoV-2 PLpro fluorogenic enzymatic inhibition assay. The data set is classed as biochemical.
The subject of a further data set is SARS-CoV PLpro. The following applies: cited from earlier work.
Data set [3] is described as follows: Oral median lethal dose in mice (literature). The format is in vivo. The note with it: mouse, ratio of cited LD50 values.
The mark [4] stands for this setting: 1 nM cathepsin L, Z-Phe-Arg-AMC substrate, read-out: Cathepsin L IC50.
Where [5] appears, read: 50 nM Mpro, 10 µM MCA-[…]-K(DNP)-K-NH2, no DTT, 37 °C, read-out: Mpro IC50.
Setting [6] is: 24.46 nM PLpro, 50 µM Z-RLRGG-AMC, no DTT, 37 °C, read-out: PLpro IC50.

As usually defined, the CC50 is the concentration at which the toxic effect on the cells reaches its halfway point. Broadly, the IC50 is the point on the concentration scale where inhibition reaches its midpoint. By EC50 is commonly meant the concentration at which the effect is half-maximal. Consider `CN(C)C(=S)SSC(=S)N(C)C` [RI174, tetra-Methyl-thiuram disulfide], for which the “LD50 Mouse oral” value in data set [1] was 1350 [33] mg/kg. Besides, in data set [2], the half-maximal cytotoxic concentration (CC50) at 48 h is < 0.08 µM. The IC50 against human cathepsin L was found to be 16.9 ± 6.9 µM; on SARS-CoV-2 Mpro it was 2 ± 0.3 µM; at SARS-CoV-2 PLpro it was 0.6 µM. The half-maximal effective concentration (EC50) with SARS-CoV-2 was < 0.08 µM.
Turning to `CCN(CC)C(=S)SSC(=S)N(CC)CC` [Disulfiram, reference compound], in data set [1], the “LD50 Mouse oral” value is 1980 [29] mg/kg. The IC50 is 24.1 µM in the data set with SARS-CoV PLpro and 2.2 ± 1.4 µM on human cathepsin L. Besides, in data set [2], the half-maximal cytotoxic concentration (CC50) at 48 h was 0.9 µM. The EC50 in the data set with SARS-CoV-2 was found to be 0.5 ± 0.2 µM.
Take `CC(C)N(C(=S)SSC(=S)N(C(C)C)C(C)C)C(C)C` [RI177, tetra-IsoPropyl-thiuram disulfide]: in data set [2], the CC50 at 48 h was > 60 µM. Further, the figures for the IC50 at human cathepsin L (setting [4]), against SARS-CoV-2 Mpro and on SARS-CoV-2 PLpro were > 50 µM, 3.8 ± 0.6 µM and > 50 µM, respectively. Moreover, the “inhibitory effect on cathepsin L (in words)” value at human cathepsin L is “did not seem to have any inhibitory effect”. Besides, in the data set on SARS-CoV-2, the EC50 was > 60 µM.
`S=C(SSC(=S)N1CCCC1)N1CCCC1` [RI172, di-Pyrrolidine-thiuram disulfide]: the CC50 at 48 h in data set [2] was < 0.08 µM. Also, the IC50 amounted to 0.2 µM on human cathepsin L, 0.6 ± 0.1 µM against SARS-CoV-2 Mpro and 0.7 µM on SARS-CoV-2 PLpro. For the same compound, the “fold more potent than disulfiram against Mpro” value on SARS-CoV-2 Mpro stood at 2.5 fold. The half-maximal effective concentration (EC50) with SARS-CoV-2 was < 0.08 µM.
`S=C(SSC(=S)N1CCOCC1)N1CCOCC1` [RI173, di-Morpholine-thiuram disulfide]: in data set [1], the “LD50 Mouse oral” value was 3250 [31] mg/kg. In data set [2], the CC50 at 48 h was 0.3 µM. In addition, the figures for the IC50 on human cathepsin L (setting [4]), on SARS-CoV-2 Mpro (setting [5]) and at SARS-CoV-2 PLpro (setting [6]) were 1.7 ± 0.6 µM, 0.6 ± 0.1 µM and 0.2 ± 0.1 µM, respectively. Besides, in data set [3], the “LD50 relative to LD50 of disulfiram” value is on record as “approximately 1.6 times”. For the same compound, the “fold more potent than disulfiram against Mpro” value on SARS-CoV-2 Mpro is 2.5 fold. In the data set with SARS-CoV-2 (Huh7.5.1 cells, MOI 1.0, 48 h), the “concentration range of antiviral activity” value lay in the range of 100 to 200 nM. The “CC50/EC50 Ratio (therapeutic ratio)” value with SARS-CoV-2 (Huh7.5.1 cells) was found to be 3. Further, the EC50 in the data set with SARS-CoV-2 stood at 0.1 µM. On SARS-CoV-2 PLpro (ratio of IC50 values vs disulfiram), the “fold more potent than disulfiram against PLpro” value is 19 fold.
As to `CN(C(=S)SSC(=S)N(C)c1ccccc1)c1ccccc1` [RI176, di-Methyl-di-Phenyl-thiuram disulfide], the IC50 on human cathepsin L (setting [4]), against SARS-CoV-2 Mpro and on SARS-CoV-2 PLpro was > 50 µM each time. At human cathepsin L, the “inhibitory effect on cathepsin L (in words)” value is “did not seem to have any inhibitory effect”.
As for `CCOC(=S)SSC(=S)OCC` [RI175, O,O-di-Ethyl dithiobis-thioformate], in data set [1], the “LD50 Mouse oral” value is 1200 [32] mg/kg. In addition, the half-maximal cytotoxic concentration (CC50) at 48 h in data set [2] is > 60 µM. For the same compound, the values for the IC50 against human cathepsin L, against SARS-CoV-2 Mpro and at SARS-CoV-2 PLpro were 1.9 ± 0.6 µM, 0.3 ± 0.1 µM and 0.6 ± 0.1 µM, respectively. Besides, the “fold more potent than disulfiram against Mpro” value at SARS-CoV-2 Mpro is reported as “about 5 fold”. Also, the EC50 with SARS-CoV-2 was > 60 µM.
As for `CN1CCN(C(=S)SSC(=S)N2CCN(C)CC2)CC1` [RI171, di-4-Methylpiperazine-thiuram disulfide], the “LD50 Mouse oral” value in data set [1] was 100 [26] mg/kg. Also, the CC50 at 48 h in data set [2] was 1.7 µM. Moreover, the IC50 at human cathepsin L (setting [4]) stood at 4.5 ± 0.7 µM; on SARS-CoV-2 Mpro (setting [5]) it was 3.2 ± 0.1 µM; on SARS-CoV-2 PLpro (setting [6]) it was 1.9 ± 0.1 µM. Also, the “CC50/EC50 Ratio (therapeutic ratio)” value in the data set on SARS-CoV-2 (Huh7.5.1 cells) was found to be 0.9. The EC50 with SARS-CoV-2 was found to be 1.9 ± 0.2 µM.
